# US6552022B1, “Benzamide derivatives and their use as ApoB-100 secretion inhibitors” (SmithKline Beecham Corporation, priority 1998, dated 2003)
row,melting point [°C],Compound
1,223,"N#Cc1cccc(S(=O)(=O)N2CCN(c3ccc(NC(=O)c4ccccc4-c4ccc(C(F)(F)F)cc4)cc3)CC2)c1 [Example 82, 4′-Trifluoromethyl-biphenyl-2-carboxylic Acid [4-[4-(3-cyano-benzenesulfonyl)-piperazin-1-yl]-phenyl]-amide]"
2,168 to 170,COc1cccc(CN2CCN(c3ccc(NC(=O)c4ccccc4-c4ccc(C(F)(F)F)cc4)cc3)CC2)c1 (hydrate or solvate)
3,190 to 191,"N#Cc1cccc(CN2CCN(c3ccc(NC(=O)c4ccccc4OCc4ccc(C(F)(F)F)cc4)cc3)CC2)c1 [Example 27, N-[4-[4-(3-Cyano-benzyl)-piperazin-1-yl]-phenyl]-2-(4-trifluoromethyl-benzyloxy)-benzamide]"
4,178.5 to 180,"N#Cc1cccc(C(=O)N2CCN(c3ccc(NC(=O)c4ccccc4-c4ccc(C(F)(F)F)cc4)cc3)CC2)c1 [Example 80, 4′-Trifluoromethyl-biphenyl-2-carboxylic Acid [4-[4-(3-cyano-benzoyl)-piperazin-1-yl]-phenyl]-amide]"
5,140 to 142,"COc1cccc(C(=O)Nc2ccc(N3CCN(Cc4cccc(C#N)c4)CC3)cc2)c1OCCc1ccccc1 [Example 30, N-[4-[4-(3-Cyano-benzyl)-piperazin-1-yl]-phenyl]-3-methoxy-2-phenethyloxy-benzamide]"
6,254 to 256,"CS(=O)(=O)N1CCN(c2ccc(NC(=O)c3ccccc3-c3ccc(C(F)(F)F)cc3)cc2)CC1 [Example 83, 4′-Trifluoromethyl-biphenyl-2-carboxylic Acid [4-(4-methanesulfonyl-piperazin-1-yl)-phenyl]-amide]"
7,102 to 104,"COc1cccc(C(=O)Nc2ccc(N3CCN(Cc4cccc(C#N)c4)CC3)cc2)c1OCCC1CCCCC1 [Example 31, N-[4-[4-(3-Cyano-benzyl)-piperazin-1-yl]-phenyl]-2-(2-cyclohexyl-ethoxy)-3-methoxy-benzamide]"
8,198 to 200,"O=C(Nc1ccc(N2CCN(Cc3ccc(F)cc3)CC2)cc1)c1ccccc1-c1ccc(C(F)(F)F)cc1 [Example 52, 4′-Trifluoromethyl-biphenyl-2-carboxylic acid [4-[4-(4-fluoro-benzyl)-piperazin-1-yl]-phenyl]-amide]"
9,167 to 169,"CCOC(=O)CN1CCN(c2ccc(NC(=O)c3ccccc3-c3ccc(C(F)(F)F)cc3)cc2)CC1 [Example 42, 4′-Trifluoromethyl-biphenyl-2-carboxylic acid [4-(4-ethoxycarbonylmethyl-piperazin-1-yl)-phenyl)-amide]"
10,195 to 197,"COc1cccc(C(=O)Nc2ccc(N3CCN(Cc4ccc[nH]4)CC3)cc2)c1-c1ccc(C(C)C)cc1 [Example 68, 4′-Isopropyl-6-methoxy-biphenyl-2-carboxylic acid [4-(4-(1H-pyrrol-2-ylmethyl)-piperazin-1-yl)-phenyl]-amide]"
11,164 to 165,"N#Cc1cccc(CN2CCN(c3ccc(NC(=O)c4ccc(Cl)cc4-c4ccc(C(F)(F)F)cc4)cc3)CC2)c1 [Example 10, 5-Chloro-4′-trifluoromethyl-biphenyl-2-carboxylic acid [4-[4-(3-cyano-benzyl)-piperazin-1-yl]-phenyl]-amide]"
12,72 to 76,Cc1ccc(-c2ccccc2C(=O)Nc2ccc(N3CCN(Cc4cccc(C#N)c4)CC3)cc2)c(C)c1
13,189 to 190.5,O=C(Nc1ccc(N2CCN(Cc3cccc(F)c3)CC2)cc1)c1ccccc1-c1ccc(C(F)(F)F)cc1 (hydrate or solvate)
14,199 to 201,"NC(=O)c1cccc(CN2CCN(c3ccc(NC(=O)c4ccccc4-c4ccc(C(F)(F)F)cc4)cc3)CC2)c1 [Example 50, 4′-Trifluoromethyl-biphenyl-2-carboxylic acid {4-[4-(3-carbamoyl-benzyl)-piperazin-1-yl]-phenyl)amide]"
15,166 to 168,"Cc1ccc(C(=O)Nc2ccc(N3CCN(Cc4cccc(C#N)c4)CC3)cc2)c(-c2ccc(C(F)(F)F)cc2)c1 [Example 9, 5-Methyl-4′-trifluoromethyl-biphenyl-2-carboxylic acid [4-[4-(3-cyano-benzyl)-piperazin-1-yl]-phenyl]-amide]"
16,181 to 183,"O=C(Nc1ccc(N2CCN(Cc3cccs3)CC2)cc1)c1ccccc1-c1ccc(C(F)(F)F)cc1 [Example 70, 4′-Trifluoromethyl-biphenyl-2-carboxylic acid [4-(4-thiophen-2-ylmethyl-piperazin-1-yl)-phenyl]-amide]"
17,159 to 161,"COc1ccc(C(=O)Nc2ccc(N3CCN(Cc4cccc(C#N)c4)CC3)cc2)c(-c2ccccc2)c1 [Example 12, 5-Methoxy-biphenyl-2-carboxylic acid [4-[4-(3-cyano-benzyl)-piperazin-1-yl]-phenyl]-amide]"
18,117 to 121,N#Cc1cccc(CN2CCN(c3ccc(NC(=O)c4ccccc4-c4cccc(C(F)(F)F)c4)cc3)CC2)c1
19,209 to 211,"N#Cc1cccc(CN2CCN(c3ccc(NC(=O)c4ccccc4-c4ncc(-c5ccccc5)o4)cc3)CC2)c1 (hydrate or solvate) [Example 15, N-[4-[4-(3-Cyano-benzyl)-piperazin-1-yl]-phenyl]-2-(5-phenyl-oxazol-2-yl)-benzamide]"

row,melting point [°C],Compound
1,189 to 191,"O=C(Nc1ccc(N2CCN(Cc3ccc4c(c3)OCO4)CC2)cc1)c1ccccc1-c1ccc(C(F)(F)F)cc1 [Example 48, 4′-Trifluoromethyl-biphenyl-2-carboxylic acid [4-(4-(3,4-methylenedioxy-benzyl)-piperazin-1-yl)-phenyl]-amide]"
2,116 to 120,COc1ccc(-c2ccccc2C(=O)Nc2ccc(N3CCN(Cc4cccc(C#N)c4)CC3)cc2)cc1OC
3,194 to 196,"O=C(Nc1ccc(N2CCN(Cc3cc[nH]n3)CC2)cc1)c1ccccc1-c1ccc(C(F)(F)F)cc1 [Example 71, 4′-Trifluoromethyl-biphenyl-2-carboxylic acid {4-[4-(1H-pyrazole-3-ylmethyl)-piperazine-1-yl]-phenyl}-amide]"
4,169 to 171,"N#Cc1cccc(CN2CCN(c3ccc(NC(=O)c4ccccc4-c4ccccc4)cc3)CC2)c1 (hydrate or solvate) [Example 11, Biphenyl-2-carboxylic acid (4-[4-(3-cyano-benzyl)-piperazin-1-yl]-phenyl]-amide]"
5,151 to 155,COc1ccc(-c2ccc(C(F)(F)F)cc2)c(C(=O)Nc2ccc(N3CCN(Cc4cccc(C#N)c4)CC3)cc2)c1
6,194 to 196,O=C(Nc1ccc(N2CCN(Cc3ccncc3)CC2)cc1)c1ccccc1-c1ccc(C(F)(F)F)cc1
7,124 to 128,COc1ccc(-c2ccccc2C(=O)Nc2ccc(N3CCN(Cc4cccc(C#N)c4)CC3)cc2)cc1
8,200 to 202,"N#Cc1cccc(CN2CCN(c3ccc(NC(=O)c4ccccc4-c4ccc(F)cc4)cc3)CC2)c1 [Example 23, 4′-Fluoro-biphenyl-2-carboxylic acid [4-[4-(3-cyano-benzyl)-piperazin-1-yl]-phenyl]-amide]"
9,180 to 182,"COc1cccc(C(=O)Nc2ccc(N3CCN(Cc4cccc(-c5nc(C)no5)c4)CC3)cc2)c1-c1ccc(C(C)C)cc1 [Example 74, 4′-Isopropyl-6-methoxy-biphenyl-2-carboxylic acid (4-(4-(3-(3-methyl-[1,2,4]oxadiazol-5-yl)-benzyl)-piperazine-1-yl)-phenyl)-amide]"
10,181 to 183,"CC(=O)c1cccc(CN2CCN(c3ccc(NC(=O)c4ccccc4-c4ccc(C(F)(F)F)cc4)cc3)CC2)c1 [Example 66, 4′-Trifluoromethyl-biphenyl-2-carboxylic acid [4-(4-(3-acetyl-benzyl)-piperazin-1-yl)-phenyl]-amide]"
11,173 to 175,"O=C(Nc1ccc(N2CCN(Cc3ccco3)CC2)cc1)c1ccccc1-c1ccc(C(F)(F)F)cc1 [Example 67, 4′-Trifluoromethyl-biphenyl-2-carboxylic acid [4-(4-furan-2-ylmethyl-piperazin-1-yl)-phenyl]-amide]"
12,169 to 171,"N#Cc1cccc(CN2CCN(c3ccc(NC(=O)c4ccccc4-c4ccccn4)cc3)CC2)c1 [Example 86, N-{4-[4-(3-Cyano-benzyl)-piperazin-1-yl]-phenyl}-2-pyridin-2-yl-benzamide]"
13,183 to 185,"O=C(Nc1ccc(N2CCN(Cc3cnccn3)CC2)cc1)c1ccccc1-c1ccc(C(F)(F)F)cc1 [Example 58, 4′-Trifluoromethyl-biphenyl-2-carboxylic acid [4-(4-pyrazin-2-ylmethyl-piperazin-1-yl)-phenyl]-amide]"
14,118 to 122,CCc1ccc(-c2ccccc2C(=O)Nc2ccc(N3CCN(Cc4cccc(C#N)c4)CC3)cc2)cc1
15,176 to 178,"CCOCCN1CCN(c2ccc(NC(=O)c3ccccc3-c3ccc(C(F)(F)F)cc3)cc2)CC1 [Example 43, 4′-Trifluoromethyl-biphenyl-2-carboxylic acid [4-(4-(2-ethoxy-ethyl)-piperazin-1-yl]-phenyl]-amide]"
16,168 to 170,"O=C(Nc1ccc(N2CCN(Cc3c[nH]c4ccc(F)cc34)CC2)cc1)c1ccccc1-c1ccc(C(F)(F)F)cc1 [Example 73, 4′-Trifluoromethyl-biphenyl-2-carboxylic acid {4-[4-(5-fluoro-1H-indol-3-ylmethyl)-piperazin-1-yl]-phenyl}-amide]"
17,118 to 120,"Cn1ccnc1CN1CCN(c2ccc(NC(=O)c3ccccc3-c3ccc(C(F)(F)F)cc3)cc2)CC1 [Example 60, 4′-Trifluoromethyl-biphenyl-2-carboxylic acid [4-[4-(1-methyl-1H-imidazol-2-ylmethyl)-piperazin-1-yl)-phenyl]-amide]"
18,165 to 167,"O=C(CN1CCN(c2ccc(NC(=O)c3ccccc3-c3ccc(C(F)(F)F)cc3)cc2)CC1)NCc1cccc(-c2ccccc2)c1 [Example 77, 4′-Trifluoromethyl-biphenyl-2-carboxylic Acid [4-(4{[(biphenyl-3-ylmethyl)-carbamoyl]-methyl}piperazin-1-yl)-phenyl]-amide]"
19,175 to 176.5,"CC(=O)N1CCN(c2ccc(NC(=O)c3ccccc3-c3ccc(C(F)(F)F)cc3)cc2)CC1 [Example 81, 4′-Trifluoromethyl-biphenyl-2-carboxylic Acid [4-(4-acetyl-piperazin-1-yl)-phenyl]-amide]"
